Data from PubChem BioAssay (NCI).
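96-well plates; 48 h exposure; 5 concentrations. Endpoints by linear interpolation between flanking doses. Not reached: highest tested concentration assigned. Abbreviation: GI50, concentration required for 50% inhibition of growth. Definition used: TGI = concentration required for complete inhibition of growth.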

Columns and labels:
Test in all cases: growth of human tumour cells (NCI), 48 h
SK-MEL-2 melanoma = system: SK-MEL-2 melanoma
SNB-75 CNS = system: SNB-75 CNS
M14 melanoma = system: M14 melanoma
LOX IMVI melanoma = system: LOX IMVI melanoma
BT-549 breast = system: BT-549 breast
DU-145 prostate = system: DU-145 prostate
SN12C renal = system: SN12C renal
HOP-92 NSCLC = system: HOP-92 NSCLC
MALME-3M melanoma = system: MALME-3M melanoma
NCI-H23 lung = system: NCI-H23 lung

Compound	GI50 (SK-MEL-2 melanoma) [µM]	TGI (SK-MEL-2 melanoma) [µM]	GI50 (SNB-75 CNS) [µM]	TGI (SNB-75 CNS) [µM]	GI50 (M14 melanoma) [µM]	TGI (M14 melanoma) [µM]	GI50 (LOX IMVI melanoma) [µM]	TGI (LOX IMVI melanoma) [µM]	GI50 (BT-549 breast) [µM]	TGI (BT-549 breast) [µM]	GI50 (DU-145 prostate) [µM]	TGI (DU-145 prostate) [µM]	GI50 (SN12C renal) [µM]	TGI (SN12C renal) [µM]	GI50 (HOP-92 NSCLC) [µM]	TGI (HOP-92 NSCLC) [µM]	TGI (MALME-3M melanoma) [µM]	TGI (NCI-H23 lung) [µM]	GI50 (NCI-H23 lung) [µM]	GI50 (MALME-3M melanoma) [µM]
CC1=C(C(=O)Nc2ccc(Cl)c(Cl)c2)C(c2ccccc2O)NC(=O)N1 (configuration not stated)	> 50	> 50	25.9	> 50	> 50	> 50	33.4	> 50	15.3	> 50	> 50	> 50	34.6	> 50	> 50	> 50				
FC1OC2OC1C(OCc1ccccc1)C(OCc1ccccc1)C2OCc1ccccc1 (configuration not stated)		> 100		> 100		> 100		> 100						> 100		64	> 100	> 100		
CN1CCc2c1nc(-c1ccc([N+](=O)[O-])cc1)c1c2N(C)CC1		> 100		> 100		> 100		> 100						> 100		> 100	> 100	> 100		
S=c1nc(-c2ccnc(-c3nc(=S)[nH][nH]3)c2)[nH][nH]1		> 100				> 100		> 100						> 100			> 100	> 100		
COc1ccc(S(=O)(=O)N(C)CC(=O)O)cc1		> 100		> 100		> 100		> 100						> 100		> 100	> 100	> 100		
CCCCCCCCCCCCCCCCOC(=O)c1cc(O)cc(C(=O)OCCCCCCCCCCCCCCCC)c1		> 100		> 100		> 100		> 100						> 100		> 100	> 100	> 100		
O=C(Nc1cccc(NC(=O)c2cc(=O)c3ccccc3o2)n1)c1cc(=O)c2ccccc2o1		> 100		> 100		> 100		> 100								52.7	> 100	> 100		
COc1cc2cc3c4c(cc(OC)c(OC)c4c2cc1OC)CCN3C(=O)CCC(=O)NCCCN(C)C		41.9		53.2		32		27.3						> 100		64.6	> 100	> 100		
OCNCCNc1nc2ccccc2c2[nH]c3ccccc3c12	2.25	24	2.28	11.6			0.441	1.39	1.15	3.48	0.735	2.42	1.26	3.66				2.69	0.772	
CCOC(=O)C(NC(=O)c1[nH]cnc1/N=N/N(C)C)C(C)C (configuration not stated)		> 100		> 100		> 100		> 100						> 100			> 100	> 100		
CCOC(=O)[C@H]1Nc2ccccc2C2c3ccccc3CC21 (some centres not stated)		> 100		> 100		> 100		> 100						96.3			> 100	> 100		
CN(C=O)/C=C/c1cc(O)ccc1O		59.5		> 59		> 57.9		45				> 100		44.3		34.8	> 63.3	64.3		
COc1cnc2cc(C(=O)O)c3ccccc3c2c1		> 100		> 100		> 100		> 100				> 100		> 100		> 100	> 100	> 100		
COC(=O)CCCC(=O)NC1=C(NCc2ccccc2)C(=O)c2ccccc2C1=O		> 100		> 100		> 100		> 100		93.8		> 100		> 100			37.7	> 100		
COc1cc2c(c(OC)c1OC)-c1ccc(SC)c(=O)cc1[C@@H](NC(=O)c1ccc(Cl)cc1)CC2		5.47		> 100		2.3		14.1						12.7			5.03			
COC(=O)[C@@H]1CN(C(=O)c2ccccc2)C(=O)N1C(=O)OCc1ccccc1		> 100		> 100		> 100		> 100				> 100		> 100		> 100	> 100	> 100		
CC1COCC(C)N1C1=C(Cl)C(=O)c2ccccc2C1=O (configuration not stated)			10.7	23.2	6.53	19.5	1.41	2.77	11.7	24	10.7	22.9	11.3	23.5	0.554	2.06	2.97	24.7	11.2	1.5
COc1ccc(C(O)CC(O)(C(F)(F)F)C(F)(F)F)cc1 (configuration not stated)		40.8		34.3		> 100		36				> 100		60.8		44.4	49.1	77.5		
O=C1C=CC2(C=C1)C[C@H](NC(=O)C(F)(F)F)C(=O)O2				> 100		> 100		51						> 100			40.3	69.4		
C[C@@H]1C[C@]2(C[C@@H](C)C3[C@@H](CC4(C)[C@@H]5CCC6C(C)(C)OC(=O)C=C[C@]67C[C@@]5(CC[C@]34C)OO7)O2)OC1=O (some centres not stated)		> 100		56.9		> 100		> 100						> 100			> 100	> 100		
COc1ccc(C2CCc3cc4c(cc3/C2=N/OC(C)=O)OCO4)cc1OC (configuration not stated)		64.7		75		42.2		33.1						> 100		69.6	55.2	72.6		
Cc1cc(Cl)cc2c1NC(=O)C2=O (tested in a mixture with another compound)		> 100		> 100		> 100		33.2						> 100		> 100	> 100	> 100		
COC(=O)CC(C(C(C)=O)C(=O)OCc1ccccc1)N1C(=O)OCC1c1ccccc1 (configuration not stated)		> 100		71.9		> 100		> 100						> 100			> 100	> 100		
